Measurements taken from article PMC12888861, “Antibacterial activity of enmetazobactam against Acinetobacter spp.: a molecular dissection of mechanism of action and resistance determinants” (Antimicrobial Agents and Chemotherapy, 2025).

Tested on: carbapenem-resistant A. baumannii (CRAB) isolates (n = 67)
Test: MIC, broth microdilution (EUCAST), carbapenem-resistant A. baumannii isolates
Assay type: cell-based, Acinetobacter baumannii
Details: ETZ fixed 8 mg/L in combinations; for MIC: Acinetobacter baumannii; for MIC distribution 0.12: cumulative share of CRAB isolates (n = 67) at MIC 0.12 mg/L; for MIC distribution 0.25: cumulative share of CRAB isolates (n = 67) at MIC 0.25 mg/L; for MIC distribution 0.5: cumulative share of CRAB isolates (n = 67) at MIC 0.5 mg/L; for MIC distribution 1: cumulative share of CRAB isolates (n = 67) at MIC 1 mg/L; for MIC distribution 2: cumulative share of CRAB isolates (n = 67) at MIC 2 mg/L; for MIC distribution 4: cumulative share of CRAB isolates (n = 67) at MIC 4 mg/L; for MIC distribution 8: cumulative share of CRAB isolates (n = 67) at MIC 8 mg/L; for MIC distribution 16: cumulative share of CRAB isolates (n = 67) at MIC 16 mg/L; for MIC distribution 32: cumulative share of CRAB isolates (n = 67) at MIC 32 mg/L; for MIC distribution 64: cumulative share of CRAB isolates (n = 67) at MIC 64 mg/L
Description: The bacterial strains used in this study comprised 208 clinical isolates from the Spanish National Acinetobacter spp. 2020 Multicenter Collection, which was previously characterized in detail by our research group, including whole-genome sequencing, phylogenetics studies, clonal dynamics, and resistance mechanisms ([2], [29]). Additionally, a collection of A. baumannii ATCC 17978 transformants coding the blaOXA-23, blaOXA-24/40, blaOXA-51, blaOXA-58, blaOXA-143, and blaOXA-201 genes, previously constructed and described by our group ([30]), was used to determine the activity of enmetazobactam against strains carrying the main CHDLs of A. baumannii.
The antimicrobial susceptibility of the 208 Acinetobacter spp. isolates was assessed using the broth microdilution method, as described in the European Committee on Antimicrobial Susceptibility Testing (EUCAST) v.15 guidelines (http://www.eucast.org/clinical_breakpoints). […] MICs for enmetazobactam alone were assessed as well. […] Subsequently, MIC testing was also conducted with a collection of A. baumannii ATCC 17978 transformants expressing clinically relevant OXA-like carbapenemase genes.
The A. baumannii ATCC 19606 strain was used as the reference strain in all susceptibility experiments, in duplicate assays. Antibiotics were purchased from Sigma-Aldrich, except enmetazobactam and durlobactam, which were obtained from Advanz Pharma and MedChemExpress, respectively.

[1] = isolate Ab56, ST 1, ADC-75, OXA-69, OXA-23
[2] = isolate Ab83, ST 25, ADC-5, OXA-64, OXA-23
[3] = isolate Ab109, ST 1, ADC-75, OXA-69, OXA-23
[4] = isolate Ab133, ST 2, ADC-30, OXA-66, OXA-58, TEM-12
[5] = isolate Ab134, ST 2, ADC-30, OXA-66, OXA-58, TEM-12
[6] = isolate Ab137, ST 85, ADC-2, OXA-94, OXA-23
[7] = isolate Ab138, ST 745, ADC-30, OXA-66, OXA-58
[8] = isolate Ab140, ST 85, ADC-2, OXA-94, OXA-23
[9] = isolate Ab141, ST 745, ADC-30, OXA-66, OXA-58
[10] = isolate Ab144, ST 745, ADC-30, OXA-66, OXA-58
[11] = isolate Ab169, ST 2, ADC-30, OXA-66, OXA-23
[12] = isolate Ab171, ST 2, ADC-30, OXA-66, OXA-23
[13] = isolate Ab173, ST 2, ISAba1-ADC-30, OXA-66, OXA-23
[14] = isolate Ab174, ST 2, ADC-30, OXA-66, OXA-23
[15] = isolate Ab179, ST 2, ADC-30, OXA-66, OXA-23
[16] = isolate Ab180, ST 2, ADC-30, OXA-66, OXA-24/40
[17] = isolate Ab181, ST 2, ADC-30, OXA-66, OXA-23
[18] = isolate Ab182, ST 2, ADC-30, OXA-66, OXA-23
[19] = isolate Ab183, ST 2, ADC-30, OXA-66, OXA-23
[20] = isolate Ab184, ST 2, ADC-30, OXA-66, OXA-23
[21] = isolate Ab186, ST 2, ADC-30, OXA-66, OXA-23
[22] = isolate Ab191, ST 2, ADC-30, OXA-66, OXA-23
[23] = isolate Ab192, ST 2, ADC-30, OXA-66, OXA-23
[24] = isolate Ab194, ST 2, ADC-30, OXA-66, OXA-23
[25] = isolate Ab199, ST 2, ADC-30, OXA-66, OXA-23
[26] = isolate Ab201, ST 2, ADC-30, OXA-66, OXA-23
[27] = isolate Ab204, ST 2, ADC-30, OXA-66, OXA-23

Which MIC [1] does the source give for CO/N=C(\C(=O)N[C@@H]1C(=O)N2C(C(=O)[O-])=C(C[N+]3(C)CCCC3)CS[C@H]12)c1csc(N)n1 [cefepime] here?
Its MIC is 32 µg/mL.

What about the MIC [2] of the same molecule?
Its MIC is 64 µg/mL.

What about the MIC [3] of the same molecule?
Its MIC is 64 µg/mL.

And the MIC [4]?
Its MIC is 32 µg/mL.

And the MIC [5]?
Its MIC is 16 µg/mL.

And the MIC [6]?
Its MIC is 64 µg/mL.

And the MIC [7]?
The MIC was 32 µg/mL.

What about the MIC [8] of the same molecule?
Its MIC is 32 µg/mL.

And the MIC [9]?
The MIC was 32 µg/mL.

What about the MIC [10] of the same molecule?
The MIC was 32 µg/mL.

And the MIC [11]?
Its MIC is 32 µg/mL.

What about the MIC [12] of the same molecule?
The MIC was 32 µg/mL.

And the MIC [13]?
Its MIC is at least 128 µg/mL.

And the MIC [14]?
Its MIC is 32 µg/mL.

And the MIC [15]?
Its MIC is 64 µg/mL.

And the MIC [16]?
The MIC was 16 µg/mL.

What about the MIC [17] of the same molecule?
Its MIC is 32 µg/mL.

And the MIC [18]?
The MIC was 16 µg/mL.

What about the MIC [19] of the same molecule?
Its MIC is 32 µg/mL.

What about the MIC [20] of the same molecule?
The MIC was at least 128 µg/mL.

What about the MIC [21] of the same molecule?
The MIC was 32 µg/mL.

And the MIC [22]?
Its MIC is 32 µg/mL.

And the MIC [23]?
Its MIC is 32 µg/mL.

What about the MIC [24] of the same molecule?
Its MIC is 32 µg/mL.

What about the MIC [25] of the same molecule?
Its MIC is 32 µg/mL.

What about the MIC [26] of the same molecule?
Its MIC is 64 µg/mL.

And the MIC [27]?
Its MIC is 16 µg/mL.

And the “MIC distribution 0.12” value?
Its value is 0.

What about the “MIC distribution 0.25” value of the same molecule?
The value was 0.

And the “MIC distribution 0.5” value?
The value was 0.

What about the “MIC distribution 1” value of the same molecule?
The value was 0.

What about the “MIC distribution 2” value of the same molecule?
Its value is 0.

What about the “MIC distribution 4” value of the same molecule?
Its value is 1.5.

And the “MIC distribution 8” value?
The value was 3.0.

And the “MIC distribution 16” value?
Its value is 22.4.

What about the “MIC distribution 32” value of the same molecule?
The value was 70.1.

And the “MIC distribution 64” value?
Its value is 97.0.

With C[C@@H](O)[C@H]1C(=O)N2C(C(=O)O)=C(SCCN=CN)C[C@H]12 [imipenem] as the molecule, how does the MIC [1] read?
The MIC was 16 µg/mL.

And the MIC [2]?
Its MIC is 32 µg/mL.

What about the MIC [3] of the same molecule?
The MIC was 16 µg/mL.

What about the MIC [4] of the same molecule?
Its MIC is 16 µg/mL.

And the MIC [5]?
Its MIC is 16 µg/mL.

And the MIC [6]?
Its MIC is 32 µg/mL.

And the MIC [7]?
Its MIC is 32 µg/mL.

What about the MIC [8] of the same molecule?
Its MIC is 32 µg/mL.

What about the MIC [9] of the same molecule?
The MIC was 16 µg/mL.

And the MIC [10]?
Its MIC is 32 µg/mL.

And the MIC [11]?
Its MIC is 32 µg/mL.

And the MIC [12]?
The MIC was 16 µg/mL.

What about the MIC [13] of the same molecule?
The MIC was 32 µg/mL.

What about the MIC [14] of the same molecule?
Its MIC is 64 µg/mL.

What about the MIC [15] of the same molecule?
The MIC was 32 µg/mL.

And the MIC [16]?
Its MIC is 64 µg/mL.

What about the MIC [17] of the same molecule?
Its MIC is 32 µg/mL.

What about the MIC [18] of the same molecule?
The MIC was 16 µg/mL.

And the MIC [19]?
Its MIC is 16 µg/mL.

What about the MIC [20] of the same molecule?
Its MIC is 32 µg/mL.

What about the MIC [21] of the same molecule?
Its MIC is 32 µg/mL.

And the MIC [22]?
Its MIC is 64 µg/mL.

And the MIC [23]?
The MIC was 64 µg/mL.

And the MIC [24]?
Its MIC is 32 µg/mL.

And the MIC [25]?
The MIC was 32 µg/mL.

What about the MIC [26] of the same molecule?
The MIC was 32 µg/mL.

And the MIC [27]?
Its MIC is 16 µg/mL.

And the “MIC distribution 0.12” value?
The value was 0.

And the “MIC distribution 0.25” value?
The value was 0.

What about the “MIC distribution 0.5” value of the same molecule?
Its value is 0.

What about the “MIC distribution 1” value of the same molecule?
Its value is 0.

And the “MIC distribution 2” value?
Its value is 0.

And the “MIC distribution 4” value?
The value was 0.

What about the “MIC distribution 8” value of the same molecule?
The value was 9.0.

And the “MIC distribution 16” value?
Its value is 34.3.

And the “MIC distribution 32” value?
Its value is 79.1.

And the “MIC distribution 64” value?
The value was 100.

What about the “MIC distribution ≤0.06” value (cumulative share of CRAB isolates (n = 67) at MIC ≤0.06 mg/L) of the same molecule?
Its value is 0.
